The structures appear in SMILES notation.

This assay deals with T1, EGFR (Homo sapiens, UniProt P00533).
T1 construct: endogenous in cells; host or cells: A431 cells (lysate, captured with SUMO1 anti-EGFR antibody)
T1 sequence (P00533 25-1210): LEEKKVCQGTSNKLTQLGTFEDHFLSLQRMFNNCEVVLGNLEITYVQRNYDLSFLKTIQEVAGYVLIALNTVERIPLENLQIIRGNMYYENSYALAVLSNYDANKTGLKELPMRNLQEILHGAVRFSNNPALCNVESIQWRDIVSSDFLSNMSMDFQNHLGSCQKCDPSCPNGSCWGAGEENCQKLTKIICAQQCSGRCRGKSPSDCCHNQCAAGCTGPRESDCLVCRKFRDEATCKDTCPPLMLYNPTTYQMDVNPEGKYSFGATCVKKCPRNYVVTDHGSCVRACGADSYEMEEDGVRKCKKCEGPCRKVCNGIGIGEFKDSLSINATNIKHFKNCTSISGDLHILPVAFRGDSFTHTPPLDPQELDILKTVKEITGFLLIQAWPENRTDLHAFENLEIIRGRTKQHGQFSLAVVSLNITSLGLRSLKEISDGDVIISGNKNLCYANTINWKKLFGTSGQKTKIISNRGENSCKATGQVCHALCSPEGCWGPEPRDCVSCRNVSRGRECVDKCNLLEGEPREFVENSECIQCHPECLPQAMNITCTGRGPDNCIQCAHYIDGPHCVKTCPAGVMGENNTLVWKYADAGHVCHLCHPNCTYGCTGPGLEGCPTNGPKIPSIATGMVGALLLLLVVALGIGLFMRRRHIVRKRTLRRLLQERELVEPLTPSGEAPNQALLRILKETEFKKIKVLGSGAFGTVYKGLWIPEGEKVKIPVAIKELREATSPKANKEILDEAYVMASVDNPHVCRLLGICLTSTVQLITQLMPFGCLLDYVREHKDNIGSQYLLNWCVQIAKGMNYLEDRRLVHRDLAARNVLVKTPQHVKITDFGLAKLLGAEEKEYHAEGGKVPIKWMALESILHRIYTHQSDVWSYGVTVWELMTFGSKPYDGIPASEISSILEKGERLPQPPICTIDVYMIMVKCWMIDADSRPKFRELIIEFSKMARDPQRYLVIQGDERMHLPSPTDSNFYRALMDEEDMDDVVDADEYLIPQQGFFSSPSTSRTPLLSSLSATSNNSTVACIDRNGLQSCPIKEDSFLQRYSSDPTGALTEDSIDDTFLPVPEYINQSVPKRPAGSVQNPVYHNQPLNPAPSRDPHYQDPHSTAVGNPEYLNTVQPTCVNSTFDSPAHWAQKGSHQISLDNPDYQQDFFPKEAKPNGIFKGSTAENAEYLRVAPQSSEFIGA
In words: Biochemical EGFR Assay. Set-up: concentration or dose not given beside the values. In a few lines:
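EGFR from A431 lysate was captured on anti-EGFR-coated wells and preincubated 30 min with compound (diluted 1:10 in TBS) at room temperature. After ATP/MnCl2 phosphorylation for 5 min, the reaction was stopped with EDTA. Phosphotyrosine was detected by ELISA (anti-phosphotyrosine, peroxidase conjugate, ABTS) at 410 nm.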
As for `N#Cc1ccccc1C=C1C(=O)Nc2ccc(CCCl)cc21` [10735/G07], the “Biochem EGFR % Inhibition (P.167)” value came out at 4.6%.

Take `Cc1c(Br)cc(Br)c2c1C(=Cc1cccc3ccccc13)C(=O)N2` [10735/H09]: the “Biochem EGFR % Inhibition (P.167)” value is on record as −10.7%.

Regarding `O=C1Nc2ccc(S(=O)(=O)Nc3ccc(C(F)(F)F)cc3)cc2C1=Cc1ccccc1F` [10736/E08], the “Biochem EGFR % Inhibition (P.167)” value is recorded as −47.3%.

Turning to `CCc1ccc(C=C2C(=O)Nc3ccc(I)cc32)cc1` [10736/B09], the “Biochem EGFR % Inhibition (P.167)” value is −3.5%.

`O=C1Nc2ccc(CCCl)cc2C1=Cc1c(F)cccc1F` [10735/G08]: the “Biochem EGFR % Inhibition (P.167)” value was 1.6%.

With `O=C1Nc2ccc(S(=O)(=O)Nc3ccc(C(F)(F)F)cc3)cc2C1=Cc1ccccc1Cl` [10736/E11], the “Biochem EGFR % Inhibition (P.167)” value is −74.1%.

As for `Cc1c(Br)cc(Br)c2c1C(=Cc1cccc([N+](=O)[O-])c1)C(=O)N2` [10719/H10], the “Biochem EGFR % Inhibition (P.167)” value is on record as 14.6%.

The values are drawn from patent publication US20020026053A1, “Novel 3-(substituted) -2- indolinones compounds and use thereof as inhibitors of protein kinase activity” (priority 1997, published 2002).
